Laboratory results reported in patent publication US20180153807A1, “COMPOSITIONS AND METHODS FOR TREATING MYCOBACTERIA INFECTIONS AND LUNG DISEASE” (priority 2015, published 2018).
Like-named read-outs stand apart in the source and are kept apart here.

What was measured:
[1] = system: Mycobacterium avium complex (MAC) 104 biofilm; assay: Cochleate treatment of Mycobacteria biofilm on polarized A549 cells in transwell; format: cell-based; details: delivered daily to bottom well, MAC 104 biofilm on A549 cells
Description: A549 alveolar epithelial cells were cultured in a transwell system. A549 cells became polarized after 6 days and integrity. Bacteria were seeded on the top (apical surface) of the cells. Seven days were allowed for biofilm formation.
Mycobacterium avium complex (MAC) 104 (10^5 bacteria) infection inoculum.
0.1 ml of the different treatments were delivered to the bottom well daily. The basolateral surface (bottom) of the cells were immersed in the tissue culture medium present in the bottom well. Three replicas per experimental group were tested in two different experiments.
Biofilm and epithelial cells were lysed and diluted and plated onto 7H10.

[2] = system: Mycobacterium avium complex (MAC)
Description: C57 BL/6 mice were infected with 8.3×10^6 of Mycobacterium avium complex (MAC) intranasally and the infection was allowed to establish for 7 days. Then baseline bacterial load was determined in 10 mice and treatment protocols were initiated. Mice were treated daily for 4 weeks (orally or with intraperitonal injection of free amikacin). Mice were harvested and lung and spleens were removed, homogenized and plated to determine the bacterial load. Experimental groups had 12 mice each.

[3] = rats; cited from earlier work

## NCC[C@H](O)C(=O)N[C@@H]1C[C@H](N)[C@@H](O[C@H]2O[C@H](CN)[C@@H](O)[C@H](O)[C@H]2O)[C@H](O)[C@H]1O[C@H]1O[C@H](CO)[C@@H](O)[C@H](N)[C@H]1O [Free amikacin, Amikacin]
[1]; 20 μg/ml
  CFU/bacteria, 14 days: 9.1 ± 0.4 × 10^5 CFU
[1]; 100 μg/ml
  CFU/bacteria, 14 days: 3.2 ± 0.3 × 10^5 CFU
[2]; IP 100 mg/Kg, daily for 4 weeks, 100 mg/kg
  bacterial load: 5.6 ± 0.4 × 10^3^(2)(3) CFU
[2]; IP 100 mg/Kg, daily for 4 weeks, listed as AMK, 100 mg/kg
  bacterial load: 5.6×10^3 CFU
[2]; daily for 4 weeks
  kind of effect observed (in words): bactericidal
[2]; mouse, in vivo
  toxicity, histopathology including kidneys (in words): no toxicity was observed
[2]; oral, daily for 4 weeks, dose not given
  bacterial load: 2.2 ± 0.5 × 10^5^(1) CFU
[3]
  published NOAEL for injected (intravenous) amikacin: 100 mg/kg
